# Measurements taken from the supplement of paper PMC10307832.
# Key:
# Assay in all cases: relative viability (nuclei count vs DMSO), 5 days (fraction); higher = more cells survive
# [1] = system: NCI-H1915
# Method in brief: (§1)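 Relative viability equals treated-well nuclei counts divided by vehicle-well nuclei counts. Counts came from 4× images of lung cancer cell lines grown in 1536-well plates for 5 days after pin-tool dosing on the day after seeding. Dosing used one drug alone or a fixed anchor-drug dose plus five library-drug doses (not always all listed) in √10 steps, and values are medians of duplicate plates.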
# [2] = system: HCC-15
# Method in brief: as §1
# [3] = system: NCI-H1651
# Method in brief: as §1
# [4] = system: HARA
# Method in brief: as §1
# [5] = system: HCC-78
# Method in brief: as §1
# [6] = system: PC-14
# Method in brief: as §1
# [7] = system: NCI-H2347
# Method in brief: as §1
# [8] = system: LC-2-ad
# Method in brief: as §1
# [9] = system: LU99A
# Method in brief: as §1
# [10] = system: NCI-H838
# Method in brief: as §1
# [11] = system: NCI-H2023
# Method in brief: as §1
# [12] = system: SW 1573
# Method in brief: as §1
# [13] = system: NCI-H1355
# Method in brief: as §1
# [14] = system: NCI-H2126
# Method in brief: as §1
# [15] = system: COR-L23
# Method in brief: as §1
# [16] = system: ABC-1
# Method in brief: as §1
# [17] = system: NCI-H2085
# Method in brief: as §1
# [18] = system: EPLC-272H
# Method in brief: as §1
# [19] = system: NCI-H1993
# Method in brief: as §1
# [20] = system: NCI-H650
# Method in brief: as §1
# [21] = system: NCI-H358
# Method in brief: as §1
# [22] = system: UMC-11
# Method in brief: as §1
structure (smiles),measurement,setting,value
CC1(C)CCC(c2ccc(Cl)cc2)=C(CN2CCN(c3ccc(C(=O)NS(=O)(=O)c4ccc(N[C@H](CCN5CCOCC5)CSc5ccccc5)c(S(=O)(=O)C(F)(F)F)c4)cc3)CC2)C1 [Navitoclax] + CS(=O)(=O)N1CCN(Cc2cc3nc(-c4cccc5[nH]ncc45)nc(N4CCOCC4)c3s2)CC1 [Pictilisib] (partner 1 µM),relative viability,[1]; first compound 0.005 µM,0.893
same,relative viability,[1]; first compound 0.01581 µM,1.02
same,relative viability,[1]; first compound 0.05 µM,1.01
same,relative viability,[1]; first compound 0.1581 µM,0.933
same,relative viability,[1]; first compound 0.5 µM,0.902
same,relative viability,[2]; first compound 0.005 µM,0.733
same,relative viability,[2]; first compound 0.01581 µM,0.769
same,relative viability,[2]; first compound 0.05 µM,0.614
same,relative viability,[2]; first compound 0.1581 µM,0.726
same,relative viability,[2]; first compound 0.5 µM,0.667
same,relative viability,[3]; first compound 0.005 µM,0.592
same,relative viability,[3]; first compound 0.01581 µM,0.687
same,relative viability,[3]; first compound 0.1581 µM,0.561
same,relative viability,[3]; first compound 0.5 µM,0.559
same,relative viability,[4]; first compound 0.005 µM,0.389
same,relative viability,[4]; first compound 0.01581 µM,0.372
same,relative viability,[4]; first compound 0.05 µM,0.384
same,relative viability,[4]; first compound 0.1581 µM,0.425
same,relative viability,[4]; first compound 0.5 µM,0.381
same,relative viability,[5]; first compound 0.005 µM,0.184
same,relative viability,[5]; first compound 0.01581 µM,0.261
same,relative viability,[5]; first compound 0.1581 µM,0.232
same,relative viability,[5]; first compound 0.5 µM,0.205
same,relative viability,[6]; first compound 0.005 µM,0.648
same,relative viability,[6]; first compound 0.01581 µM,0.956
same,relative viability,[6]; first compound 0.05 µM,0.746
same,relative viability,[6]; first compound 0.1581 µM,0.748
same,relative viability,[6]; first compound 0.5 µM,0.68
same,relative viability,[7]; first compound 0.005 µM,0.63
same,relative viability,[7]; first compound 0.01581 µM,0.702
same,relative viability,[7]; first compound 0.05 µM,0.649
same,relative viability,[7]; first compound 0.1581 µM,0.395
same,relative viability,[7]; first compound 0.5 µM,0.734
same,relative viability,[8]; first compound 0.005 µM,0.614
same,relative viability,[8]; first compound 0.01581 µM,0.654
same,relative viability,[8]; first compound 0.05 µM,0.324
same,relative viability,[8]; first compound 0.1581 µM,0.447
same,relative viability,[8]; first compound 0.5 µM,0.38
same,relative viability,[9]; first compound 0.005 µM,0.361
same,relative viability,[9]; first compound 0.01581 µM,0.35
same,relative viability,[9]; first compound 0.05 µM,0.336
same,relative viability,[9]; first compound 0.1581 µM,0.34
same,relative viability,[9]; first compound 0.5 µM,0.325
same,relative viability,[10]; first compound 0.005 µM,0.435
same,relative viability,[10]; first compound 0.01581 µM,0.571
same,relative viability,[10]; first compound 0.05 µM,0.541
same,relative viability,[10]; first compound 0.1581 µM,0.494
same,relative viability,[10]; first compound 0.5 µM,0.486
same,relative viability,[11]; first compound 0.005 µM,0.282
same,relative viability,[11]; first compound 0.01581 µM,0.248
same,relative viability,[11]; first compound 0.05 µM,0.22
same,relative viability,[11]; first compound 0.1581 µM,0.263
same,relative viability,[11]; first compound 0.5 µM,0.269
same,relative viability,[12]; first compound 0.005 µM,0.466
same,relative viability,[12]; first compound 0.01581 µM,0.54
same,relative viability,[12]; first compound 0.05 µM,0.464
same,relative viability,[12]; first compound 0.1581 µM,0.389
same,relative viability,[12]; first compound 0.5 µM,0.503
same,relative viability,[13]; first compound 0.005 µM,0.461
same,relative viability,[13]; first compound 0.01581 µM,0.42
same,relative viability,[13]; first compound 0.05 µM,0.416
same,relative viability,[13]; first compound 0.1581 µM,0.497
same,relative viability,[13]; first compound 0.5 µM,0.427
same,relative viability,[14]; first compound 0.005 µM,0.529
same,relative viability,[14]; first compound 0.01581 µM,0.507
same,relative viability,[14]; first compound 0.05 µM,0.493
same,relative viability,[14]; first compound 0.1581 µM,0.49
same,relative viability,[14]; first compound 0.5 µM,0.451
same,relative viability,[15]; first compound 0.005 µM,0.733
same,relative viability,[15]; first compound 0.01581 µM,0.919
same,relative viability,[15]; first compound 0.05 µM,0.818
same,relative viability,[15]; first compound 0.1581 µM,0.763
same,relative viability,[15]; first compound 0.5 µM,0.932
same,relative viability,[16]; first compound 0.005 µM,0.795
same,relative viability,[16]; first compound 0.01581 µM,1
same,relative viability,[16]; first compound 0.05 µM,0.686
same,relative viability,[16]; first compound 0.1581 µM,0.64
same,relative viability,[16]; first compound 0.5 µM,0.616
same,relative viability,[17]; first compound 0.005 µM,0.449
same,relative viability,[17]; first compound 0.01581 µM,0.49
same,relative viability,[17]; first compound 0.05 µM,0.475
same,relative viability,[17]; first compound 0.1581 µM,0.507
same,relative viability,[17]; first compound 0.5 µM,0.596
same,relative viability,[18]; first compound 0.005 µM,0.321
same,relative viability,[18]; first compound 0.1581 µM,0.325
same,relative viability,[18]; first compound 0.5 µM,0.306
same,relative viability,[19]; first compound 0.005 µM,0.808
same,relative viability,[19]; first compound 0.01581 µM,0.853
same,relative viability,[19]; first compound 0.05 µM,0.803
same,relative viability,[19]; first compound 0.1581 µM,0.792
same,relative viability,[19]; first compound 0.5 µM,0.925
same,relative viability,[20]; first compound 0.005 µM,0.765
same,relative viability,[20]; first compound 0.01581 µM,0.948
same,relative viability,[20]; first compound 0.05 µM,0.869
same,relative viability,[20]; first compound 0.1581 µM,0.972
same,relative viability,[20]; first compound 0.5 µM,0.448
same,relative viability,[21]; first compound 0.005 µM,0.347
same,relative viability,[21]; first compound 0.01581 µM,0.352
same,relative viability,[21]; first compound 0.05 µM,0.307
same,relative viability,[21]; first compound 0.1581 µM,0.379
same,relative viability,[21]; first compound 0.5 µM,0.336
same,relative viability,[22]; first compound 0.005 µM,0.743
same,relative viability,[22]; first compound 0.01581 µM,0.809
same,relative viability,[22]; first compound 0.1581 µM,0.741
same,relative viability,[22]; first compound 0.5 µM,0.516
Oc1nc(-c2ccc(C(F)(F)F)cc2)nc2c1CSCC2 [XAV939] + CS(=O)(=O)N1CCN(Cc2cc3nc(-c4cccc5[nH]ncc45)nc(N4CCOCC4)c3s2)CC1 [Pictilisib] (partner 1 µM),relative viability,[1]; first compound 0.08 µM,1.11
same,relative viability,[1]; first compound 0.253 µM,0.967
same,relative viability,[1]; first compound 0.8 µM,0.941
same,relative viability,[1]; first compound 2.53 µM,0.921
same,relative viability,[2]; first compound 0.08 µM,0.858
same,relative viability,[2]; first compound 0.253 µM,0.632
same,relative viability,[2]; first compound 0.8 µM,0.736
same,relative viability,[2]; first compound 2.53 µM,0.755
same,relative viability,[3]; first compound 0.08 µM,0.569
same,relative viability,[3]; first compound 0.253 µM,0.454
same,relative viability,[3]; first compound 0.8 µM,0.53
same,relative viability,[3]; first compound 2.53 µM,0.638
same,relative viability,[4]; first compound 0.08 µM,0.477
same,relative viability,[4]; first compound 0.253 µM,0.386
same,relative viability,[4]; first compound 0.8 µM,0.345
same,relative viability,[4]; first compound 2.53 µM,0.394
same,relative viability,[5]; first compound 0.08 µM,0.216
same,relative viability,[5]; first compound 0.253 µM,0.206
same,relative viability,[5]; first compound 0.8 µM,0.161
same,relative viability,[5]; first compound 2.53 µM,0.213
same,relative viability,[6]; first compound 0.08 µM,0.859
same,relative viability,[6]; first compound 0.253 µM,0.662
same,relative viability,[6]; first compound 0.8 µM,0.767
same,relative viability,[6]; first compound 2.53 µM,0.386
same,relative viability,[7]; first compound 0.08 µM,0.681
same,relative viability,[7]; first compound 0.253 µM,0.636
same,relative viability,[7]; first compound 0.8 µM,0.418
same,relative viability,[7]; first compound 2.53 µM,0.523
same,relative viability,[8]; first compound 0.08 µM,0.5
same,relative viability,[8]; first compound 0.253 µM,1.13
same,relative viability,[8]; first compound 0.8 µM,0.407
same,relative viability,[8]; first compound 2.53 µM,0.428
same,relative viability,[9]; first compound 0.08 µM,0.336
same,relative viability,[9]; first compound 0.253 µM,0.279
same,relative viability,[9]; first compound 0.8 µM,0.305
same,relative viability,[9]; first compound 2.53 µM,0.293
same,relative viability,[10]; first compound 0.08 µM,0.441
same,relative viability,[10]; first compound 0.253 µM,0.374
same,relative viability,[10]; first compound 0.8 µM,0.343
same,relative viability,[10]; first compound 2.53 µM,0.246
same,relative viability,[11]; first compound 0.08 µM,0.177
same,relative viability,[11]; first compound 0.253 µM,0.187
same,relative viability,[11]; first compound 0.8 µM,0.176
same,relative viability,[11]; first compound 2.53 µM,0.158
same,relative viability,[12]; first compound 0.08 µM,0.542
same,relative viability,[12]; first compound 0.253 µM,0.403
same,relative viability,[12]; first compound 0.8 µM,0.357
same,relative viability,[12]; first compound 2.53 µM,0.392
same,relative viability,[13]; first compound 0.08 µM,0.414
same,relative viability,[13]; first compound 0.253 µM,0.374
same,relative viability,[13]; first compound 0.8 µM,0.387
same,relative viability,[13]; first compound 2.53 µM,0.236
same,relative viability,[14]; first compound 0.08 µM,0.477
same,relative viability,[14]; first compound 0.253 µM,0.448
same,relative viability,[14]; first compound 0.8 µM,0.473
same,relative viability,[14]; first compound 2.53 µM,0.406
same,relative viability,[15]; first compound 0.08 µM,1.05
same,relative viability,[15]; first compound 0.253 µM,0.768
same,relative viability,[15]; first compound 0.8 µM,0.757
same,relative viability,[15]; first compound 2.53 µM,0.564
same,relative viability,[16]; first compound 0.08 µM,0.759
same,relative viability,[16]; first compound 0.253 µM,0.581
same,relative viability,[16]; first compound 0.8 µM,0.602
same,relative viability,[16]; first compound 2.53 µM,0.348
same,relative viability,[17]; first compound 0.08 µM,0.388
same,relative viability,[17]; first compound 0.253 µM,0.412
same,relative viability,[17]; first compound 0.8 µM,0.445
same,relative viability,[17]; first compound 2.53 µM,0.355
same,relative viability,[18]; first compound 0.08 µM,0.347
same,relative viability,[18]; first compound 0.253 µM,0.36
same,relative viability,[18]; first compound 0.8 µM,0.302
same,relative viability,[18]; first compound 2.53 µM,0.323
same,relative viability,[19]; first compound 0.8 µM,0.911
same,relative viability,[19]; first compound 2.53 µM,0.7
same,relative viability,[20]; first compound 0.08 µM,0.916
same,relative viability,[20]; first compound 0.253 µM,1.05
same,relative viability,[20]; first compound 0.8 µM,0.881
same,relative viability,[20]; first compound 2.53 µM,0.74
same,relative viability,[21]; first compound 0.08 µM,0.306
same,relative viability,[21]; first compound 0.253 µM,0.232
same,relative viability,[21]; first compound 0.8 µM,0.336
same,relative viability,[21]; first compound 2.53 µM,0.277
same,relative viability,[22]; first compound 0.08 µM,0.733
same,relative viability,[22]; first compound 0.8 µM,0.752
same,relative viability,[22]; first compound 2.53 µM,0.712
